We go through eleven molecules from ChEMBL document CHEMBL1201862, “PubChem BioAssay data set” (2004).

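Following 48 hours of exposure in 96-well plates, responses at five concentrations were used to interpolate endpoints linearly. Here, GI50 denotes the concentration required for 50% inhibition of growth.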 Active and inactive are the calls of the source. Cut-off read from the data, not from the text of the source: active = GI50 up to about 1.1 µM and inactive = higher.

Some test systems named below: OVCAR-4; RPMI-8226; HCC 2998; PC-3; SF-268; UACC-257; MDA-MB-435; OVCAR-3; SNB-19; T47D; MDA-MB-231; 786-0; CCRF-CEM; RXF 393; HCT-15; SK-MEL-5; OVCAR-8; KM12; CAKI-1; IGROV-1.
Holding throughout (assay): inhibition of tumour cell growth, NCI panel, 48 h

Take `Oc1ccc(-c2nn3c(CCCCCCCCc4nnc5sc(-c6ccc(O)cc6)nn45)nnc3s2)cc1`: the GI50 with OVCAR-4, in the experiment on RPMI-8226, in the experiment on HCC 2998, in the experiment with PC-3, in the experiment on SF-268 and with UACC-257 was > 100 µM (inactive) throughout. The GI50 is > 100 µM (inactive) in the experiment on MDA-MB-435; > 100 µM (inactive) with OVCAR-3; > 100 µM (inactive) in the experiment with SNB-19; 55.1 µM (inactive) in the experiment with T47D; > 100 µM (inactive) in the experiment with MDA-MB-231; > 100 µM (inactive) in the experiment with 786-0. Moreover, the GI50 in the experiment on CCRF-CEM is > 100 µM (inactive); in the experiment with RXF 393 it was > 100 µM (inactive); in the experiment on HCT-15, more than 100 µM; in the experiment with SK-MEL-5, > 100 µM (inactive); in the experiment with OVCAR-8, > 100 µM (inactive); with KM12, > 100 µM (inactive). Also, the GI50 with CAKI-1 was > 100 µM (inactive).
As to `CCOC(=O)c1ccc(NC(NC(=O)CC)(C(F)(F)F)C(F)(F)F)cc1`, the GI50 was > 100 µM (inactive) in the experiment on IGROV-1; > 100 µM (inactive) in the experiment on RPMI-8226; > 100 µM (inactive) in the experiment on HCC 2998; 60.3 µM (inactive) in the experiment on PC-3; > 100 µM (inactive) with SF-268; > 100 µM (inactive) in the experiment with UACC-257. Further, the GI50 in the experiment on MDA-MB-435, in the experiment with OVCAR-3, in the experiment on SNB-19, in the experiment on T47D, with MDA-MB-231 and in the experiment with 786-0 was > 100 µM (inactive) each time. The GI50 in the experiment on CCRF-CEM was > 100 µM (inactive); in the experiment on RXF 393, > 100 µM (inactive); with HCT-15 it was 97.1 µM; in the experiment with SK-MEL-5, > 100 µM (inactive); with OVCAR-8, > 100 µM (inactive); with KM12 it was 59.6 µM (inactive). Also, in the experiment with CAKI-1, the GI50 is > 100 µM (inactive).
`Nc1ccccc1C(=O)NNC(=O)c1ccccc1N`: the GI50 in the experiment on OVCAR-4, in the experiment on IGROV-1, in the experiment with RPMI-8226, with HCC 2998, in the experiment on PC-3 and in the experiment with UACC-257 was > 100 µM (inactive) each time. Moreover, the GI50 in the experiment with MDA-MB-435, in the experiment with OVCAR-3, in the experiment with SNB-19, in the experiment on T47D, in the experiment with MDA-MB-231 and in the experiment on 786-0 was > 100 µM (inactive) each time. Also, the GI50 in the experiment on CCRF-CEM is > 100 µM (inactive); in the experiment on RXF 393, > 100 µM (inactive); in the experiment with HCT-15, more than 100 µM; in the experiment with SK-MEL-5 it was > 100 µM (inactive); in the experiment on OVCAR-8 it was > 100 µM (inactive); in the experiment on KM12, > 100 µM (inactive). For the same molecule, the GI50 in the experiment with CAKI-1 is > 100 µM (inactive).
Turning to `CCC1OC2C(CC=C(C)C)=C3OC(C)(O)C(C)(CC)C(=O)C3=C3OC(=O)C=C1C32` (stereo not drawn), the GI50 is 29.5 µM (inactive) in the experiment with OVCAR-4; 19.2 µM (inactive) in the experiment on RPMI-8226; 34.8 µM (inactive) with HCC 2998; 38.8 µM (inactive) with PC-3; 38.6 µM (inactive) in the experiment on SF-268; 26.8 µM (inactive) with UACC-257. The GI50 is 31.4 µM (inactive) in the experiment on MDA-MB-435; 27.4 µM (inactive) in the experiment with SNB-19; 66.2 µM (inactive) in the experiment with T47D; 15.5 µM (inactive) in the experiment on MDA-MB-231; 25.4 µM (inactive) in the experiment with 786-0; 29.7 µM (inactive) with CCRF-CEM. The GI50 was 32.4 µM in the experiment with HCT-15, 16.5 µM (inactive) in the experiment on SK-MEL-5, 34.4 µM (inactive) with KM12 and 54.2 µM (inactive) in the experiment on CAKI-1.
`CN/C(=N\c1ccc(OC)c2ccccc12)SC`: the GI50 in the experiment with OVCAR-4, in the experiment with IGROV-1, in the experiment with RPMI-8226, in the experiment with HCC 2998, in the experiment with PC-3 and with SF-268 was > 10 µM (inactive) each time. For the same molecule, the GI50 in the experiment with UACC-257, in the experiment with MDA-MB-435, with OVCAR-3, in the experiment on SNB-19, in the experiment with T47D and with MDA-MB-231 was > 10 µM (inactive) in each case. Further, the GI50 with 786-0 is > 10 µM (inactive); with CCRF-CEM, > 10 µM (inactive); in the experiment with HCT-15 it was more than 10 µM; in the experiment with SK-MEL-5 it was > 10 µM (inactive); in the experiment with OVCAR-8, > 10 µM (inactive); in the experiment on KM12, > 10 µM (inactive). The GI50 in the experiment with CAKI-1 is > 10 µM (inactive).
As for `O=C1C[C@H]2[C@@H](O1)[C@@H](O)CN1C(=O)c3ccccc3[C@H]21`, the GI50 in the experiment with OVCAR-4, with IGROV-1, in the experiment on RPMI-8226, with HCC 2998, in the experiment with PC-3 and with SF-268 was > 100 µM (inactive) throughout. In addition, the GI50 in the experiment with UACC-257, in the experiment on MDA-MB-435, in the experiment on SNB-19, with T47D, in the experiment with MDA-MB-231 and with 786-0 was > 100 µM (inactive) each time. Moreover, the GI50 in the experiment with CCRF-CEM is > 100 µM (inactive); in the experiment with RXF 393 it was > 100 µM (inactive); with HCT-15 it was more than 100 µM; in the experiment on SK-MEL-5, > 100 µM (inactive); with OVCAR-8, > 100 µM (inactive); in the experiment on KM12, > 100 µM (inactive). In addition, the GI50 with CAKI-1 is > 100 µM (inactive).
On to `COC(=O)c1ccc(C)cc1CC1Cc2cc(C)ccc2C1=O` (stereo not drawn), for which the GI50 in the experiment with OVCAR-4, in the experiment with IGROV-1, in the experiment on RPMI-8226, in the experiment on HCC 2998, in the experiment with PC-3 and with SF-268 was > 100 µM (inactive) in each case. Further, the GI50 in the experiment on UACC-257, in the experiment with MDA-MB-435, in the experiment on OVCAR-3, in the experiment on SNB-19, in the experiment with T47D and with MDA-MB-231 was > 100 µM (inactive) each time. Also, the GI50 in the experiment on 786-0 is > 100 µM (inactive); in the experiment on CCRF-CEM, > 100 µM (inactive); in the experiment on HCT-15, more than 100 µM; with OVCAR-8, > 100 µM (inactive); with KM12, > 100 µM (inactive); in the experiment with CAKI-1, > 100 µM (inactive).
For the molecule `CC1(C)CCC[C@@]2(C)C1C(=O)[C@@H]1O[C@]1(C)[C@@H]2CO` (stereo partly drawn), the GI50 in the experiment on OVCAR-4 is 24.4 µM (inactive); in the experiment with IGROV-1, 45.8 µM (inactive); in the experiment on RPMI-8226, 15.2 µM (inactive); in the experiment with HCC 2998, 20.4 µM (inactive); in the experiment with PC-3, 35.4 µM (inactive); in the experiment on SF-268, 26.2 µM (inactive). In addition, the GI50 in the experiment on UACC-257 is 43.8 µM (inactive); in the experiment on MDA-MB-435, 21 µM (inactive); in the experiment with OVCAR-3 it was 18.4 µM (inactive); in the experiment with SNB-19, 24.4 µM (inactive); with T47D, 26.7 µM (inactive); with MDA-MB-231 it was 49 µM (inactive). The GI50 was 23.2 µM (inactive) with 786-0; 11.4 µM (inactive) with CCRF-CEM; 25.6 µM (inactive) in the experiment on RXF 393; 38 µM in the experiment on HCT-15; 46.2 µM (inactive) in the experiment with SK-MEL-5; 27.3 µM (inactive) in the experiment on OVCAR-8. The GI50 in the experiment on KM12 is 29.4 µM (inactive).
For the molecule `C=CCn1c(-c2ccc([N+](=O)[O-])cc2)csc1=N`, the GI50 is 42.8 µM (inactive) with OVCAR-4; 59 µM (inactive) in the experiment with IGROV-1; > 100 µM (inactive) in the experiment on HCC 2998; 48.1 µM (inactive) in the experiment with PC-3; 74.5 µM (inactive) in the experiment with SF-268; 13.1 µM (inactive) with UACC-257. Moreover, the GI50 was 43.5 µM (inactive) in the experiment on MDA-MB-435; 41.4 µM (inactive) in the experiment with OVCAR-3; > 100 µM (inactive) with SNB-19; 26.2 µM (inactive) in the experiment on T47D; 16.8 µM (inactive) with MDA-MB-231; 74.6 µM (inactive) in the experiment with 786-0. Also, the GI50 in the experiment on CCRF-CEM was 11.1 µM (inactive); in the experiment with RXF 393, 7.43 µM (inactive); in the experiment with HCT-15 it was 64.7 µM; in the experiment with SK-MEL-5, 14.8 µM (inactive); in the experiment with OVCAR-8 it was 69.2 µM (inactive); with KM12 it was 36.6 µM (inactive). In addition, the GI50 with CAKI-1 is 69.5 µM (inactive).
As for `Cc1cc(=O)oc2cc(O)c(CN(C)CC(=O)O)cc12`, the GI50 in the experiment with OVCAR-4, in the experiment on IGROV-1, in the experiment with RPMI-8226, with HCC 2998, in the experiment on PC-3 and in the experiment on SF-268 was > 100 µM (inactive) each time. The GI50 in the experiment on UACC-257, with MDA-MB-435, in the experiment on SNB-19, in the experiment on T47D, in the experiment on MDA-MB-231 and in the experiment on 786-0 was > 100 µM (inactive) in each case. Also, the GI50 with RXF 393 was > 100 µM (inactive); in the experiment on HCT-15, more than 100 µM; with SK-MEL-5, > 100 µM (inactive); in the experiment with OVCAR-8 it was > 100 µM (inactive); with KM12, > 100 µM (inactive); in the experiment with CAKI-1 it was > 100 µM (inactive).
In the case of `Cc1nc(-[n+]2nc(-c3ccncc3)nn2-c2ccccc2)sc1C`, the GI50 with IGROV-1 is 5.01 µM (inactive); in the experiment on RPMI-8226, 68.1 µM (inactive); with HCC 2998, > 100 µM (inactive); in the experiment on PC-3, 15.5 µM (inactive); in the experiment on SF-268, 21.4 µM (inactive); in the experiment with UACC-257, 26.7 µM (inactive). The GI50 was 23.4 µM (inactive) in the experiment on MDA-MB-435; 35.9 µM (inactive) in the experiment with SNB-19; 39.4 µM (inactive) in the experiment on T47D; 32.1 µM (inactive) with MDA-MB-231; 19.1 µM (inactive) in the experiment with 786-0; 17.5 µM (inactive) in the experiment on CCRF-CEM. Also, the GI50 was 18.7 µM (inactive) in the experiment on RXF 393; 16.4 µM with HCT-15; 29.4 µM (inactive) in the experiment with SK-MEL-5; 42.9 µM (inactive) with OVCAR-8; 36.9 µM (inactive) in the experiment on KM12; 19.1 µM (inactive) in the experiment with CAKI-1.
